This note sets out measurements from article PMC9767310 (Journal of chemical information and modeling, 2022).

The term IC50 denotes the concentration at which inhibition is half-maximal. For orientation: EC50 means the concentration needed to bring the measured effect to its halfway point.

The target in assay [1] is T1, αVβ3 (Homo sapiens, UniProt P05106+P06756). As to the kind of experiment: αVβ3-mediated cell adhesion to fibrinogen. Format: cell-based.
For assay [2], the target named is recombinant αVβ3 ectodomain (Homo sapiens, UniProt P05106+P06756). As to the kind of experiment: Negative-stain electron microscopy of αVβ3 ectodomain conformation.
Assay [3] addresses T1, αVβ3. As to the kind of experiment: Monoclonal antibody AP5 binding assay. Format: cell-based.

Entries after “also recorded” stand apart in the source; their conditions may differ. Counter-ions that a name gives are not always drawn. Some results are limits rather than exact numbers.

For the compound `COc1ccc([C@H](CC(=O)O)N2CCN(CCCc3ccc4c(n3)NCCC4)C2=O)cn1` [MK-429, reference compound], on αVβ3 [1] (3 nM), the “inhibition of αVβ3-mediated cell adhesion (positive control)” value is recorded as over 90%.
The compound `OCC[C@@H]1CN(c2ccnc3ccccc23)CCN1Cc1ccc2c(n1)NCCC2` [MSR01R, (R)-2-(4-(quinolin-4-yl)-1-((5,6,7,8-tetrahydro-1,8-naphthyridin-2-yl)methyl)piperazin-2-yl)ethan-1-ol hydrochloride] registered an IC50 against αVβ3 [1] of 1300 ± 330 nM.
Consider `OCC[C@H]1CN(c2ccnc3ccccc23)CCN1Cc1ccc2c(n1)NCCC2` [MSR01S, (S)-2-(4-(quinolin-4-yl)-1-((5,6,7,8-tetrahydro-1,8-naphthyridin-2-yl)methyl)-piperazin-2-yl)ethan-1-ol hydrochloride], for which the IC50 at αVβ3 [1] was determined as 1000 ± 300 nM.
Take `c1ccc2c(N3CCN(Cc4ccc5c(n4)NCCC5)CC3)ccnc2c1` [MSR02, 7-((4-(quinolin-4-yl)piperazin-1-yl)methyl)-1,2,3,4-tetrahydro-1,8-naphthyridine]: half-maximal inhibition at αVβ3 [1] (IC50) required 2000 ± 1730 nM.
`Cl.Cl.O=C(NCCCc1ccc2c(n1)NCCC2)Nc1ccnc2ccccc12` [MSR03, 1-(quinolin-4-yl)-3-(3-(5,6,7,8-tetrahydro-1,8-naphthyridin-2-yl)propyl)urea dihydrochloride]: the “receptor extension and swing-out by negative-stain EM (in words)” value in assay [2] is “does not induce receptor extension and swing-out”. Besides, the “percentage of αVβ3 in the active, extended-open conformation” value in assay [2] (312 μM, control 5%) is on record as “did not increase this percentage”. Also, inhibition against αVβ3 [1] was half-maximal at 1600 ± 580 nM (IC50). Moreover, the “increase in potency vs ZINC72424116” value on αVβ3 [1] (adhesion IC50) is on record as 3.5 fold. The concentration giving a half-maximal response (EC50) at αVβ3 [3] (EC50 (half-maximal exposure of the AP5 epitope), MSR03 dihydrochloride prepared in 1 M NaCl, n = 3) was over 300000 nM. Besides, the “exposure of the AP5 epitope (in words)” value on αVβ3 [3] (HEK-αVβ3 cells) was “did not expose the AP5 epitope; also recorded: does not expose the epitope for the ligand-induced binding site of antibody AP5”.
